Experiments:
[1] = tested on: PLCβ1−/− mice; assay: Prepulse inhibition (PPI) of acoustic startle response in PLCβ1−/− mice; type: in vivo, mouse; conditions: 0.2 mg/kg i.p. 45 minutes before the test, prepulse 74, 82, 90 dB, p<0.05 vs vehicle
Procedure: (§1) PPI tests were carried out with 26 responder mice 13˜15 weeks old by using a single acoustic startle chamber (Coulbourn Instruments, USA), one mouse at a time. The startle reflex was triggered by a pulse stimulus in the form of a 40 msec, 120 dB burst of white noise (SS). Inhibition of the SS-elicited startle response was achieved using a 20 msec-prepulse stimulus of various intensities (74, 82, and 90 dB white noise) that preceded SS by 100 msec.
(§2) The test was composed of a series of 7 blocks, each of which was a “semi-random” mixture of 8 different trial types (no stimulus, SS only, three PP only, three PP plus SS), separated by 10 to 15-second intertrial intervals. The percent prepulse inhibition (%PPI) was calculated as [1−(response to PP-SS coupling/response to SS only)]×100.
(§3) Haloperidol (0.2 mg/kg body weight) was intraperitonealy (i.p.) administered 45 minutes before the test, using 0.5% dimethylsulfoxide (DMSO) in saline (0.9% NaCl) as the vehicle. Haloperidol (Tocris Cookson, UK) stock solution was prepared in DMSO and stored at […] for less than a month.

[2] = tested on: wild-type mice; assay: Prepulse inhibition (PPI) of acoustic startle response in wild-type mice; type: in vivo, mouse; conditions: 0.2 mg/kg i.p. 45 minutes before the test, vs vehicle
Procedure: as §1, §2, §3

O=C(CCCN1CCC(O)(c2ccc(Cl)cc2)CC1)c1ccc(F)cc1 [haloperidol, Haloperidol]
effect on the PPI deficit (%PPI) [1]: completely reversed | effect on the PPI (%PPI) [2]: not effective
